These results are taken from patent publication US7897369B2, “Isoprenoid wax ester synthases, isoprenoid acyl CoA-synthetases, and uses thereof” (Regents of the University of Minnesota, priority 2007, dated 2011).

For test [1], the system named is S. cerevisiae H1246 expressing WS2. Kind of test: Heterologous expression of WS2 in TAG deficient yeast, FAEE by TLC. The class given is cell-based, Saccharomyces cerevisiae. Conditions: H1246 given both ethanol and oleic acid as substrates. How it is done:
Fifteen milliliters of grown yeast were centrifuged for 10 minutes at 4000 rpm. The cell pellets were vortexed vigorously with glass beads for 5 minutes to lyse open cells and extracted with 1 mL chloroform of which 5 μL were spotted on TLC with Whatman normal phase silica gel 60 plates and developed using hexane:diethyl ether:acetic acid (90:10:1, v/v/v). TLC plates were stained with either iodine vapor.

The test system of test [2] is S. cerevisiae YGL035c expressing WS2. The experiment in a line: Heterologous expression of WS2 in MIG1 deletion yeast, ethyloleate by TLC and GC. The test is classed as cell-based, Saccharomyces cerevisiae. On the procedure: S. cerevisiae YGL035c BY4742 with following genotype: MATalpha his3Δ1 leu2Δ0 lys2Δ0 ura3Δ0 ΔMIG1 was purchased from ATCC ([…]; Manassas, Va.). S. cerevisiae YGL035c was cultivated for electro transformation in YPG (Yeast peptone glucose) medium at 30° C. overnight. 100 μL of washed yeast cell pellets were electroporated with 5 μL of pESC_URA for the negative control or 5 μL of pESC URA WS2, which expresses acyltransferase gene constructs. Cells were rescued with 800 μL 1M sorbitol and 200 μL were plated onto synthetic minimal media drop out agar plates without uracil. Colonies were seen after 2 days and were picked and grown in nitrogen base medium (Difco Detroit Mich.) […], and 0.13% (wt/vol), synthetic dropout medium supplement without uracil, and 2% (wt/vol) glucose. One hundred milliliter yeast cultures were grown aerobically overnight at 30° C. in 250 ml flask with synthetic dropout uracil growth media with glucose. Cells were spun down and resuspended in 200 mL of fresh dropout media with 2% glucose, 0.1% potassium oleate, and 2% galactose to induce expression of heterologous protein. Cultures were capped with a rubber stopper with syringe needle piercing the top of the rubber stopper to allow gas (carbon dioxide) to exit during the 72 hours anaerobic growth. Cells were harvested and resuspended in 1 mL of chloroform and approximately 0.5 grams of glass beads. Total lipid composition of yeast was determined from cells harvested from a 200-ml liquid culture, broken with glass-beads in a 50-mL Falcon tube, and extracted into 1.5 mL of chloroform.
Cells were vortexed vigorously for 5 minutes to lyse open cells and chloroform was removed and evaporated under nitrogen gas. 15 mL sample of 250 mL cultures were centrifuged and lysed with glass beads, the yeast lysates were resuspended in 1 ml chloroform for GC/MS analysis and TLC analysis.
Fifteen milliliters of grown yeast were centrifuged for 10 minutes at 4000 rpm. […]
For quantification of ethyloleate, chloroform extractions of three known amounts (1.5 nmoles, 15 nmoles, and 30 nmoles) of ethyloleate standard were injected into the gas chromatograph (GC) in which the peak areas were integrated to calculate the amounts of ethyloleate produced by YGL035c expressing WS2. Three microliters of chloroform extracts from the samples were injected and analyzed on a gas chromatography electron impact mass spectrometry that were performed with a Hewlett Packard 6890 series gas chromatograph connected to an HP 5973 mass spectrometer. […]

Test [3] deals with Acs2/WS2. The experiment in a line: Acs2/WS2-coupled assay with oleic acid and ethanol (TLC). The test is classed as biochemical, Marinobacter hydrocarbonoclasticus. Conditions: oleic acid and ethanol as substrates, each 250 μM, 37° C. overnight. How it is done: In vitro coupled assays/TLC analysis—Stock solutions of various fatty acid substrates (oleic acid) were prepared in 50 mM Tris-HCl buffer (pH 8) containing 1% gum arabic, […], 0.1% taurocholate, and 100 mM of fatty acid. WS/Acs enzyme coupled assays were carried out in 500 μL reactions containing 50 mM Tris-HCl buffer pH 8.0, 12.5 μL of fatty acid stock solution and addition of ethyl alcohol solution (final concentrations of each substrate 250 μM), 10 mM MgCl2, 10 mM CoASH, 10 mM ATP, 5 mM TCEP, 0.1 U of inorganic pyrophosphatase, 0.25 μg of Acs2 (acyl CoA synthetase) and 0.5 μg of WS2 (wax ester synthase). Assays were incubated at 37° C. overnight before thin-layer chromatography (TLC) analysis of reaction products. In vitro WS assay samples were extracted with 500 μL of chloroform:methanol (1:1 [vol/vol]), and chloroform:methanol extracts were analyzed by TLC with Whatman normal phase silica gel 60 plates where products were separated using hexane:diethyl ether:acetic acid (90:10:1 [vol/vol/vol]). Products were compared to an ethyloleate standard. Resolved TLC plates were stained with iodine vapor.

Take `CCCCCCCC/C=C\CCCCCCCC(=O)OCC` [ethyloleate]: the “Ethyloleate production in vivo (TLC)” value in test [1] was “produced in vivo”; in test [2] (Mig1 deletion yeast expressing pESC-URA-WS2, galactose induced, grown anaerobically with 0.1% potassium oleate) it was “shown in vivo”; in test [2] (potassium oleate not supplemented) it was “No ethyloleate product was seen”. For the same compound, the “Ethyloleate formed from the oleate added” value in test [2] (250 mL culture, 889 μmoles oleate added) is reported as “approximately 50 μmol”.

With `CCCCCCCC/C=C\CCCCCCCC(=O)O` [oleic acid], in test [3], the “Ethyloleate formation in Acs2/WS2-coupled assay (TLC)” value is listed as “ethyloleate ester product was synthesized in vitro”. For the same compound, the “% Efficiency oleate to ethyloleate” value in test [2] (0.1% (wt/vol) oleate in 250 mL (889 μmoles)) came to 5.5%.
